Entries after “also recorded” stand apart in the source; their conditions may differ.

For data set [1], the target named is T1, TNFα convertase from HL60 cells (Homo sapiens, UniProt P24158).
T1 construct: solution containing convertase activity partially purified from uninduced HL60 cells; endogenous in cells
T1 sequence (P24158 28-248): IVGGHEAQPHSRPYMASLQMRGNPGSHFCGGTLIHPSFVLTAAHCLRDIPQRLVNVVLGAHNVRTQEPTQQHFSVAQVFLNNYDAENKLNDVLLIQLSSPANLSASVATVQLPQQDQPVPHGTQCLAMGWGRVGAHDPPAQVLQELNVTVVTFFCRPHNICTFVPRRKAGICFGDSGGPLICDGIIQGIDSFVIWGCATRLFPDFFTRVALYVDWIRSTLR
The data set is described as follows: 35S-labelled 26 kD TNFα in vitro transcription/translation autoradiographic convertase assay with HL60 convertase (P-30 fraction). It is filed as biochemical. To be noted: 100 pg/ml; 30° C., 1 hour; SDS-PAGE autoradiography. The source says: A preferred assay procedure consists of in vitro transcription/translation to produce the 26 kD molecule, followed by treatment with convertase in the presence or absence of compounds being tested for convertase inhibitory activity. The procedure entails in vitro transcription/translation of the TNFα cDNA present in the pGEM vector. Thus, the sequence was removed from pB11 by Pst I digestion and was inserted into the Pst I site of pGEM-3 (obtainable from Promega Biotec, Madison Wis.). The resulting plasmid, termed pGEM-TNFα14, was amplified in E. coli using established techniques, and plasmid DNA was prepared according to the procedure of Birnboim and Doly, described above. Plasmid DNA was transcribed in vitro by linearizing it with Hind III, and the linearized plasmid templates were used to prepare capped transcripts with T7 RNA polymerase and an in vitro transcription kit supplied by Promega Biotec (Madison, Wis.).
The mRNA produced above was translated in vitro in the presence of ^35S-cysteine to produce ^35S-cysteine-labelled 26 kD TNFα. A rabbit reticulocyte lysate translation kit was used, also supplied by Promega Biotec, and the conditions recommended by the manufacturer were followed.
^35S-cysteine-labelled 26 kD TNFα was used to assay for convertase inhibitors as follows. 25 μl of in vitro translated material was combined with 250 μl of solution containing convertase activity partially purified from uninduced HL60 cells, plus compounds to be assayed for inhibitory activity. The convertase was produced by harvesting 2×10^9 HL60 cells, disrupting the cells, and isolating S-1 (supernatant fluid from a 100,000 ×g centrifugation) and P-30 (pellet from a 30,000×g centrifugation) fractions totalling 18 and 6 ml, respectively. 250 μl of the P-30 fraction was used, although the S-1 fraction may also be used. The assay was carried out at 30° C. for 1 hour, essentially as described above. Next, the reaction mixture was immunoprecipitated with rabbit anti-human TNFα polyclonal antisera (produced from TNFα made in E. coli) and protein A Sepharose, pelleted and washed. […]

The target in data set [2] is T2, purified native PR-3 from human neutrophils (Homo sapiens, UniProt P24158).
T2 construct: from tissue; host or cells: human blood neutrophils
T2 sequence (P24158 28-248): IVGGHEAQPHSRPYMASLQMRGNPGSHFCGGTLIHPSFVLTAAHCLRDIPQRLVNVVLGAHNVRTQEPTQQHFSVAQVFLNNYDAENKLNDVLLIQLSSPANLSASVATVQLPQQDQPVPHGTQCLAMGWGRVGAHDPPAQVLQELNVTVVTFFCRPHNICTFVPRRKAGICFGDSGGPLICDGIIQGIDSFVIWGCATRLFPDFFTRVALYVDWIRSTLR
The data set is described as follows: 35S-labelled 26 kD TNFα autoradiographic convertase assay with purified native PR-3. Type of data set: biochemical. The settings on record: 45 μM; PR-3 0.3 μg/ml preincubated 30 minutes. The procedure: ^35S-cysteine-labelled 26 kD TNFα was used to assay for convertase inhibitors as follows. 25 μl of in vitro translated material was combined with 250 μl of solution containing convertase activity partially purified from uninduced HL60 cells, plus compounds to be assayed for inhibitory activity. The convertase was produced by harvesting 2×10^9 HL60 cells, disrupting the cells, and isolating S-1 (supernatant fluid from a 100,000 ×g centrifugation) and P-30 (pellet from a 30,000×g centrifugation) fractions totalling 18 and 6 ml, respectively. 250 μl of the P-30 fraction was used, although the S-1 fraction may also be used. The assay was carried out at 30° C. for 1 hour, essentially as described above. Next, the reaction mixture was immunoprecipitated with rabbit anti-human TNFα polyclonal antisera (produced from TNFα made in E. coli) and protein A Sepharose, pelleted and washed. The bound protein was eluted and electrophoresed using SDS-PAGE. The gel was fixed in 40% methanol, 10% acetic acid, soaked in Enlightening (Dupont), dried, and exposed to X-ray film which was subsequently developed.
The above assay was also used with purified native PR-3 from human neutrophils to test a variety of proteinase inhibitors for their ability to inhibit TNFα convertase activity, as shown in FIG. 5. Purified PR-3 (0.3 μg/ml) was preincubated for 30 minutes with the following inhibitors prior to addition of ^35S-labelled 26 kD-TNFα, and then assayed as described above: DCI (45 μM), α-2-macroglobulin (1 mg/ml), PMSF (20 μM), leupeptin (2 μg/ml), EDTA (10 mM), or pepstatin (2 μg/ml).

Data set [3] deals with T3, TNFα convertase/PR-3 (purified native PR-3) (Homo sapiens, UniProt P24158).
T3 construct: from tissue; host or cells: human blood neutrophils
T3 sequence (P24158 28-248): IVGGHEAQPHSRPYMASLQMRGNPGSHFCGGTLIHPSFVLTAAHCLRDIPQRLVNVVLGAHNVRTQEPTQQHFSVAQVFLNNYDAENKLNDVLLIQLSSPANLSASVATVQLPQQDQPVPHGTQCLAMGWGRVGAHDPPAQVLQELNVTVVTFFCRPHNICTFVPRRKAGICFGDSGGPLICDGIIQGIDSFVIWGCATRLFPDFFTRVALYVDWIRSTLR
The data set is described as follows: Colorimetric Boc-Ala-ONp assay for convertase inhibition. Type of data set: biochemical. The settings on record: 95 μM. The procedure: TNFα convertase inhibition can also be measured by a colorimetric assay. In this type of assay, the actual activity of TNFα convertase is measured directly using a colorimetric TNFα convertase substrate. […] One such substrate is Boc-Ala-ONp (Bachem Bioscience, Inc., Philadelphia, Pa.). Other potentially useful substrates can be predicted from the structure of TNFα convertase and other serine proteases. Although the example herein uses purified native PR-3 as the TNFα convertase, it is contemplated that recombinant PR-3 or other TNFα convertases can be used in this assay as well.
Peptide diphenyl phosphonate inhibitors were synthesized and stored as lyophilized solids as described in Oleksyszyn and Powers, Biochem 30:485-493 (1991). Inhibitor solutions (10 mg/ml) were prepared in 100% dimethyl sulfoxide (DMSO) and diluted into aqueous buffers upon initiation of the experiments. 3,4, dichloro-isocoumarin was purchased from CalBiochem. Purified PR-3 (10 μl, 0.1 mg/ml) was mixed with varying concentrations of protease inhibitor ([…]) in 20 mM sodium phosphate buffer, pH 7.0, containing 0.1 M sodium chloride. Aliquots (40 μl) were removed at selected times and diluted 1/10 into a colorimetric assay for convertase, containing 0.5-1 mM Boc-Ala-ONp (prepared fresh from a 50 mM stock in 100% methanol) in 0.02 M sodium phosphate buffer, pH 7.0, 0.1 M sodium chloride. The increase in absorbance was monitored at 347 nm on a Hewlett Packard 8450A spectrophotometer, and using an extinction coefficient of 5.5×10^3 M^−1cm^−1 to calculate units of enzyme activity.
The peptide diphenyl phosphonates were tested in the colorimetric assay described in Example 3, for inhibition of TNFα convertase/PR-3 activity.

Data set [4] relates to TNFα release from mouse macrophages. Briefly: LPS-induced TNFα secretion by adherent peritoneal macrophages (ELISA). Type of data set: cell-based. The protocol: (§1) Release of TNFα by macrophages after stimulation by LPS is a major source of TNFα in the host. In these studies peritoneal macrophages were purified by adhesion, cultured in 24 well plates, and LPS was added to induce secretion of TNFα. […] DCI was then added in dimethyl sulfoxide vehicle to cultures. The control cultures had DMSO alone added in equivalent concentrations. Supernatants were collected and assayed for TNFα and IL-6. […] [table]
A general note: In an ELISA, binding on a coated surface is turned into a signal by an enzyme label.

Data set [5] relates to IL-6 release from mouse macrophages. The data set is described as follows: LPS-induced IL-6 secretion by adherent peritoneal macrophages (B9 bioassay). It is filed as cell-based. The protocol: as §1
Data set [6] in a line: Stability and formulation studies in corn oil. The settings on record: dissolved in corn oil. It is filed as physicochemical. The text has this:
(§2) This represented a maximal tolerated dose of DCI that could be administered.

In another data set the test system is mice. The data set is described as follows: Toxicity of DCI/oil injected into mice. Type of data set: in vivo, mouse. The settings on record: injection of DCI/oil into mice.
Text: as §2

A further data set deals with serum TNFα. Briefly: Serum TNFα in mice injected with a lethal dose of LPS. The settings on record: DCI injected 1 hour before lethal LPS dose; ELISA and L929 lysis. Type of data set: in vivo, mouse. The text has this:
(§3) The kinetics of induction TNFα and IL-6 in mice injected with a lethal dose of LPS was studied. […] Also, there was a delayed increase in TNFα measured up to the 6-hour time point. This was true for both immunoreactive mouse TNFα measured by ELISA and bioactive YNFα measured by lysis of L929 cells. IL-6 levels were not reduced by this therapy.

The next data set relates to serum IL-6. Briefly: Serum IL-6 in mice injected with a lethal dose of LPS. It is filed as in vivo, mouse. To be noted: DCI injected 1 hour before lethal LPS dose.
Text: as §3

The next data set relates to mice injected with LPS. The data set is described as follows: Survival of mice injected with a lethal dose of LPS. Type of data set: in vivo, mouse. The procedure: The effect of DCI on survival of mice injected with a dose of LPS that results in 100% death of animals by 24 hours was also investigated.
The target of a further data set is T4, PR-3 (Homo sapiens, UniProt P24158).
T4 sequence (P24158 28-248): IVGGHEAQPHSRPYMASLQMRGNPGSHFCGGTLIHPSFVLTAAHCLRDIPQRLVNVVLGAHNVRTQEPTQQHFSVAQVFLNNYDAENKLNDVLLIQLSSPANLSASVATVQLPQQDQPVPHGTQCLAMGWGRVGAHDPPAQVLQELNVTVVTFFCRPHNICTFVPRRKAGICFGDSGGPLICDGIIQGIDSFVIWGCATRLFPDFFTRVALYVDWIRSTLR
Briefly: Inhibition of PR-3, summary statement of the assays shown below. It is filed as biochemical. The source says: As shown below, PR-3 is inhibited by peptide diphenyl phosphonate inhibitors, elastinal, and dichloro-isocoumarin (DCI). The peptide diphenyl phosphonate inhibitors include Boc-Val-Pro-Val-p(OPh)2 and Boc-Ala-Pro-Val-p(OPh)2 (BOC-butoxycarbonyl). […] “Boc” means N-tert-butoxycarbonyl and “p(OPh)2” represents the diphenyl phosphonate moiety, wherein the formula—COOH group is replaced with P(=0)-(O-phenyl)2. See Oleksyszyn et al., Biochem 30:485 (1991). It will be appreciated that other peptide diphenyl phosphonate molecules may inhibit PR-3. Potential inhibitors may be constructed using the procedures shown in Oleksyszyn et al., supra, using small aliphatic peptides, for an example. Once the potential inhibitors are made, they may be tested in the assays shown below.

[7] abbreviates: LPS-stimulated peritoneal macrophages, versus DMSO vehicle.

Consider `O=c1oc(Cl)c(Cl)c2ccccc12` [DCI, 3,4 dichloroisocoumarin], for which, in [1], the “inhibition of the convertase (conversion of 26 kD TNFα)” value is listed as “inhibit the convertase”. For the same compound, in data set [2], the “inhibition of TNFα convertase activity of purified PR-3” value is recorded as “significant inhibitory activity”. Further, the inhibition – broadly, how much of the control response was suppressed – at 95 µM in data set [3] is 100%. The TNFα in [4] (DCI 20 μg/ml, macrophages 10^6/ml with LPS, 3 hours, ELISA) was 0.05 ng/mL. Further, the TNFα secretion entry in data set [4] (setting [7]) is given as “markedly suppressed”. Also, the IL-6 in data set [5] (DCI 20 μg/ml, macrophages 10^6/ml with LPS, 3 hours, B9 bioassay) amounted to 189 pg/mL. Also, the IL-6 response entry in data set [5] (setting [7]) was “not significantly altered”. Also, in data set [6], the stability result is “stable and retained serine protease inhibitor activity”. Moreover, the “LD 50%” value in the data set on mice is 1 mg/mL. Further, in the data set on serum TNFα, the “serum TNFα” value is recorded as “marked inhibition; also recorded: decreased”. For the same compound, the IL-6 levels result with serum IL-6 is recorded as “not reduced”. Besides, the “dose response of survival effect” value with mice injected with LPS (0.75 mg of DCI compared with 0.5 mg) is reported as “more effective than 0.5 mg”. Further, the survival entry in the data set on mice injected with LPS (prophylactic DCI, LPS dose giving 100% death by 24 hours) is given as “prolong survival”. Moreover, the “inhibition of PR-3” value on PR-3 was “inhibited”.

The values are drawn from patent US6599706B1, “Recombinant PR-3 and assays employing the same” (Chiron Corporation, priority 1994, dated 2003).
